Series [1] concerns the target T1, Solute carrier family 22 member 1 (Mus musculus, UniProt O08966).
T1 sequence (O08966 whole entry): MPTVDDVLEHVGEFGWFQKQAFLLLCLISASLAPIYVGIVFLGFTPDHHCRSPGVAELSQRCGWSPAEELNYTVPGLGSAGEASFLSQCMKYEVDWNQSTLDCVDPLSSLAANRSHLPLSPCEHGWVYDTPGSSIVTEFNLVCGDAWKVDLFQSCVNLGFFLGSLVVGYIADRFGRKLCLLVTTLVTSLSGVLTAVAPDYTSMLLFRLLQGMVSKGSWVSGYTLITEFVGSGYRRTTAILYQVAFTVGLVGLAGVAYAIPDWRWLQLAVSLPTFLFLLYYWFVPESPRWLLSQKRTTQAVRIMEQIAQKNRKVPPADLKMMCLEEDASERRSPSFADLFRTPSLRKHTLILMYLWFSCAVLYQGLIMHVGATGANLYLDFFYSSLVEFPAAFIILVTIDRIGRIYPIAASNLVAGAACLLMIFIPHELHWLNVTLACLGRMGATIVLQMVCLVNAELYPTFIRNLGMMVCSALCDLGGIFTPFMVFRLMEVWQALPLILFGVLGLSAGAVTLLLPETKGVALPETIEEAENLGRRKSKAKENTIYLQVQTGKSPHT
The series is described as follows: Inhibition of mouse Oct1 transfected in HEK293 cells assessed as uptake of [14C]-TEA preincubated for 15 mins by liquid scintillation counting analysis. The class given is cell-based.

Series [2] concerns Plasma. The series is described as follows: Unbound plasma concentration in ddY mouse at 5 mg/kg. The class given is ADME, organism-based. The arrangement: dose 5 mg/kg. To be noted: in vivo.
For series [3], the target named is T2, Multidrug and toxin extrusion protein 1 (Mus musculus, UniProt Q8K0H1).
T2 sequence (Q8K0H1 whole entry): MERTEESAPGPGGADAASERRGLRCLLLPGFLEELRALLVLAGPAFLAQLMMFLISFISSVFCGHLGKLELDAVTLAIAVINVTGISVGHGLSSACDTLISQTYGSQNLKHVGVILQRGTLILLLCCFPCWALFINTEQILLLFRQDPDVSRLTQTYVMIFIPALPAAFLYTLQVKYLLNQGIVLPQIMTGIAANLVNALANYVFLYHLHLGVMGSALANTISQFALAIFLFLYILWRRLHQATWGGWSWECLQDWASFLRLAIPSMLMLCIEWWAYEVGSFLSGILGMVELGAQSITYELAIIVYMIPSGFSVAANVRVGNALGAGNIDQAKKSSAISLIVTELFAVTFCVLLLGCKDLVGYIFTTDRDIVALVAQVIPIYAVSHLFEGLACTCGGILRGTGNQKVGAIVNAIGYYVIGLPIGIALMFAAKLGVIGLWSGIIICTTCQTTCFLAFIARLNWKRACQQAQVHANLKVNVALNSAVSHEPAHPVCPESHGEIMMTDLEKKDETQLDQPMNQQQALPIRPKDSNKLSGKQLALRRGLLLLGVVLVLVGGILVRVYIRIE
Put plainly: Inhibition of mouse Mate1 transfected in HEK293 cells assessed as uptake of [14C]-TEA preincubated for 15 mins by liquid scintillation counting analysis. The class given is cell-based.

In series [4] the test system is Plasma. The series is described as follows: Plasma concentration in ddY mouse at 5 mg/kg. The class given is ADME, organism-based. Set-up: dose 5 mg/kg. As to conditions: in vivo.

From ChEMBL document CHEMBL3091293, “The synthesis and biodistribution of [(11)C]metformin as a PET probe to study hepatobiliary transport mediated by the multi-drug and toxin extrusion transporter 1 (MATE1) in vivo” (Bioorg Med Chem, 2013) come the findings set out here.

For orientation: Ki means a measure of affinity in units of concentration, obtained from inhibition or displacement.

Turning to `CCc1nc(N)nc(N)c1-c1ccc(Cl)cc1` [PYRIMETHAMINE], the Ki in series [1] came to 3600 nM; in series [3], 145 nM. For the same molecule, the “Cp(f)” value in the series with Plasma [2] is 0.3 µM. The molecule also registered a concentration in the series on Plasma [4] of 3.7 µM.
